Four compounds from US9161939B2, “Pyrrolo[2,3-d]pyrimidine compounds” (Zoetis LLC, priority 2008, dated 2015) can be followed below.

Experiment [1] deals with Recombinant JAK-1 (GST-JAK-1 (852-1142)) (Homo sapiens (Human), UniProt P23458). Kind of experiment: JAK Enzymatic Assay (peptide mobility shift), JAK-1. In kind it is biochemical. The note with it: ATP 40 micromolar, IRS-1 peptide, 240 minutes.
Procedure: (§4) Materials: Recombinant JAK-2 (Catalog Number PV4210) and JAK-3 (Catalog Number PV3855) were purchased from (Invitrogen Corporation, Madison, Wis.). Recombinant JAK-1 (GST-JAK-1 (852-1142)) and Tyk-2 (GST-Tyk2 (870-1187, C1187S)) used in this study were expressed and purified at Pfizer Laboratories. Adenosine 5′-triphosphate (ATP) was obtained from Sigma Chemical Company, St. Louis, Mo. […] Coating Reagent 3 was purchased from (Caliper Life Sciences, Hopkinton, Mass.).
(§5) Reactions were carried out in a 384-well plate (Matrical MP-101) in a 10 microliter total volume. Reaction mixtures contained 20 mM HEPES, pH 7.4, 10 mM magnesium chloride, 0.01% bovine serum albumin (BSA), 0.0005% Tween-20, ATP (4 micromolar for JAK-2 and JAK-3, 40 micromolar for JAK-1 and 7 micromolar for Tyk-2)), 2% DMSO and 1 micromolar peptide substrate (JAKtide for JAK-2 and JAK-3 or IRS-1 peptide for JAK-1 and Tyk-2). Compounds were diluted serially in 100% dimethyl sulfoxide and tested in an 11 point dose response in duplicate or quadruplicate (200 nl of compound/DMSO was added per 10 microliter reaction). […] Data was analyzed using Hits Well Analyzer Software from (Caliper Life Sciences) to obtain the amount of product formed.
(§6) Data was then imported into an internal application where each data point was expressed as % inhibition based on uninhibited and no enzyme controls. […]
The target of experiment [2] is Recombinant JAK-3 (Homo sapiens (Human), UniProt P52333). Kind of experiment: JAK Enzymatic Assay (peptide mobility shift), JAK-3. In kind it is biochemical. The note with it: ATP 4 micromolar, JAKtide, 90 minutes.
Chain of Recombinant JAK-3 (P52333 781-1124): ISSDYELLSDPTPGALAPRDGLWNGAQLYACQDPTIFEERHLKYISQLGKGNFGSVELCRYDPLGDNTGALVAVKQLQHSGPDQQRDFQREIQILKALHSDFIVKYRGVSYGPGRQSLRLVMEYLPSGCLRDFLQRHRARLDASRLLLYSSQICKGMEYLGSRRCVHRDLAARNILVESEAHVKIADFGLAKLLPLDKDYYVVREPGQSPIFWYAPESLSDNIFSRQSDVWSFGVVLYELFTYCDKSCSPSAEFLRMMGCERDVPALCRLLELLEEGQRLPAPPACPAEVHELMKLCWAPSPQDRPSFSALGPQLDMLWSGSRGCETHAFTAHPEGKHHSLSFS
Procedure: as §4, §5, §6
In experiment [3] the test system is T-cell proliferation in canine whole blood (ConA + canine IL-2). Kind of experiment: Canine In Vitro T-Cell Proliferation Assay. The class given is cell-based. The note with it: Canis lupus familiaris, tritiated thymidine. As for the experimental part: Methods: Canine whole blood was collected in sodium heparin tubes from 29 beagle dogs and 23 mixed breed dogs. Whole blood (20 μL) was plated in 96-well plates (Costar 3598) with 180 μL of medium (RPMI 1640, Gibco #21870-076, with 1% heat inactivated fetal bovine serum, Gibco #10082-39, 292 μg/ml L-glutamine, Gibco #250030-081, 100 u/ml penicillin and 100 μg streptomycin per ml, Gibco #15140-122) containing vehicle control or test compound (0.001 to 10 μM), concanavalin A (ConA; 1 μg/ml, Sigma C5275), and canine interleukin-2 (IL-2; 50 ng/ml, R&D Systems 1815-CL/CF). Wells containing whole blood, medium with vehicle control and no ConA or IL-2 were used as background controls. Plates were incubated at 37° C. for 48 hours. Tritiated thymidine, 0.4 μCi/well (Perkin Elmer, Net027A-005MC), was added for 20 additional hours. Plates were frozen and then thawed, washed and filtered using a Brandel MLR-96 cell harvester and prewet filter mats (Wallac 1205-401, Perkin Elmer). Filters were dried at 60° C. for one hour (Precision 16EG convection oven) and placed into filter sample bags (Wallac 1205-411, Perkin Elmer) with 10 mL of scintillant (Wallac 1205-440, Perkin Elmer). Sealed filters were counted on a LKB Wallac 1205 Betaplate liquid scintillation counter. Data were collected via Gterm Betaplate program v1.1 (Wallac copyright 1989-1990) and transformed into percent inhibition, calculated using the following formula: […]

The subject of experiment [4] is MYA-1 feline T-lymphoblast cell line. Kind of experiment: Cell Proliferation Inhibitory Assay, MYA-1. The class given is cell-based. The conditions noted are these: Felis catus; Feline MYA-1 lymphoid line (IL-2 dependent); MTS. The protocol:
(§1) Feline Cell Lines The MYA-1 and FETJ are feline T-lymphoblast cell lines obtained from ATCC (Manassas, Va.). These cells were cultured in RPMI 1640 complete media supplemented with 10% FBS at 37° C. in a humidified incubator with 5% CO2.
(§2) Cells cultured in medium described above were plated in 96-well Costar plates (Corning) at a density of 1×10^3 cells/well (feline cell lines) or 2×10^5 cells/well (lymph node cells) and exposed to various concentrations of test compounds for up to 5 days at 37° C. in a humidified incubator with 5% CO2. Effects on proliferation were determined using the CellTiter 96® AQueous Non-Radioactive Cell Proliferation Assay (Promega) according to manufacturer's instructions. In general, proliferation was indirectly measured using a soluble tetrazolium salt (MTS) and an electron coupling agent. MTS bioreduction into a formazan product soluble in tissue culture medium was monitored by absorbance at 490 nm on a Spectramax plate reader using Softmax Pro 4.6 software (Molecular Devices).

In experiment [5] the test system is FETJ feline T-lymphoblast cell line. Kind of experiment: Cell Proliferation Inhibitory Assay, FETJ. The class given is cell-based. The conditions noted are these: Felis catus; Feline FETj lymphoid line (IL-2 independent); MTS. The protocol:
as §1, §2

Experiment [6] relates to MSU LN 8 De novo T-cell lymphoma lymph node cells. Kind of experiment: Cell Proliferation Inhibitory Assay, ex vivo canine lymphoma nodal tissue MSU LN 8. In kind it is cell-based. The note with it: Canis lupus familiaris, Canine MSU LN 8, De novo T-cell lymphoma. The protocol: (§3) Malignant lymph nodes were excised by veterinary staff at Michigan State University (MSU) Veterinary College, placed into transport media (Advanced RPMI 1640 complete medium supplemented with 10% Fetal Bovine Serum (FBS), 100 U/mL penicillin, 100 ug/mL streptomycin and 0.25 ug/mL Amphotercin B (Invitrogen/Gibco®). Nodes were processed within 24 hours of removal by mincing into tiny pieces and passing through a tissue sieve. Cell suspensions were spun at 200×g, supernatant was removed, and the cell pellet was resuspended in NH4Cl for 10 minutes at room temperature. The cell suspension was pelleted by centrifugation; the NH4Cl was removed and washed once with Hanks Balanced Salt Solution (HBSS), followed by re-suspension in Proliferation Medium (Advanced RPMI complete, 1% FBS, […] 2-Mercaptoethanol, 100 U/mL penicillin, 100 ug/mL streptomycin and 0.25 ug/mL Amphotercin B). The cell suspension was then passed through a 100 μm nylon cell strainer (BD-Falcon) and counted using a hemacytometer. Cells were cultured in either Proliferation Medium alone, Proliferation Medium supplemented with 0.005% Pansorbin® (Heat inactivated, formalin-fixed Staphylococcus Aureus cells (SAC), Calbiochem), and 10 ng/mL canine IL-2 (R&D Systems), or Proliferation Medium supplemented with 125 ng/mL concavalin A (Sigma) and 125 ng/mL lipopolysaccarride (LPS; Calbiochem). […]

For experiment [7], the system named is MSU LN 9 De novo B-cell lymphoma lymph node cells. Kind of experiment: Cell Proliferation Inhibitory Assay, ex vivo canine lymphoma nodal tissue MSU LN 9. The class given is cell-based. The note with it: Canis lupus familiaris, Canine MSU LN 9, De novo B-cell lymphoma. The protocol:
as §3

Experiment [8] has as its system MSU LN 10 Chemotherapy resistant B-cell lymphoma lymph node cells. Kind of experiment: Cell Proliferation Inhibitory Assay, ex vivo canine lymphoma nodal tissue MSU LN 10. The class given is cell-based. The conditions noted are these: Canis lupus familiaris; Canine MSU LN 10, Chemotherapy resistant B-cell lymphoma; LPS + ConA. The protocol: as §3
In experiment [9] the test system is MSU LN 11 De novo B-cell lymphoma lymph node cells. Kind of experiment: Cell Proliferation Inhibitory Assay, ex vivo canine lymphoma nodal tissue MSU LN 11. The class given is cell-based. The note with it: Canis lupus familiaris; Canine MSU LN 11, De novo B-cell lymphoma; LPS + ConA. As for the experimental part:
as §3

The target in experiment [10] is Recombinant JAK-2 (Homo sapiens (Human), UniProt O60674). The conditions noted are these: read-out: JAK-2 IC50; ATP 4 micromolar, JAKtide, 150 minutes.
Chain of Recombinant JAK-2 (O60674 808-1132): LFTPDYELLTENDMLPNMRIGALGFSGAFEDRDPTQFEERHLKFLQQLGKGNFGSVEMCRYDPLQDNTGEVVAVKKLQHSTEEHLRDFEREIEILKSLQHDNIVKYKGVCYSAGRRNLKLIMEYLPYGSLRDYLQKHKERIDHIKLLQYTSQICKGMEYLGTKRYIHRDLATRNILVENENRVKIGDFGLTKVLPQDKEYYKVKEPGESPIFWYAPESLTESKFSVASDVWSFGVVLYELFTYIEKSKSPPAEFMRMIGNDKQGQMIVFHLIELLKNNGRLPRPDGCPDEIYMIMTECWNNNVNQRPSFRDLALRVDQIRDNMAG
Procedure: as §4, §5, §6
The test system of experiment [11] is flea-associated pruritus and dermatitis in flea allergic dogs. Kind of experiment: Reducing Flea-Associated Pruritus and Dermatitis Assay. In kind it is in vivo. The note with it: for pruritus as compared to placebo (seconds of pruritus per 4 hour recording): 10% level of significance. The protocol:
Twenty eight male and female dogs of mixed breeds ranging in weight from 5-35 kg and greater than one year of age were infested with approximately 100 unfed adult cat fleas (Ctenocephalides felis) 14 days prior to the start of dosing and reinfested with 30 fleas per dog every 4 days throughout the study. Seven days before dosing, twenty four dogs were randomized into three different treatment groups, placebo, 0.5 mg/kg or 0.25 mg/kg of the compound of Example 1b, based on visual analog scale (VAS) scores for skin lesions. Treatments were given orally twice a day for 28 days, and pruritic behavior as well as erythema and skin lesions were was assessed during the study. Pruritic behavior was recorded by placing dogs into pens with video recording capability, and recording their activity over 4 hours. Pruritic activity was quantitated by determining how many seconds the dogs spent scratching. Skin lesions were recorded by image capture of abdominal, inguinal region and the severity ranked according to a visual analog scale (VAS).
Video captured elapsed time of pruritic behavior was analyzed using a mixed linear model for repeated measures. The model included fixed effects of treatment and day of study and the interaction of treatment and day of study. Random effects included block, the interaction of block and treatment and error. Baseline data for pruritic behavior (day −1) were used as covariate in the analysis of pruritic behavior. Least squares means were used as estimates of treatment means. Standard errors of least squares means were estimated and 90% confidence intervals were constructed. Geometric means were computed from the least squares means for log-transformed data. A priori contrasts were used to assess treatment. Treatment differences were assessed at the 10% level of significance (P≦0.10).

SMILES strings stand for the structures.

As a reminder, the IC50 is the concentration that inhibits the measured activity by half.

Chain of Recombinant JAK-1 (GST-JAK-1 (852-1142)) (P23458 852-1142): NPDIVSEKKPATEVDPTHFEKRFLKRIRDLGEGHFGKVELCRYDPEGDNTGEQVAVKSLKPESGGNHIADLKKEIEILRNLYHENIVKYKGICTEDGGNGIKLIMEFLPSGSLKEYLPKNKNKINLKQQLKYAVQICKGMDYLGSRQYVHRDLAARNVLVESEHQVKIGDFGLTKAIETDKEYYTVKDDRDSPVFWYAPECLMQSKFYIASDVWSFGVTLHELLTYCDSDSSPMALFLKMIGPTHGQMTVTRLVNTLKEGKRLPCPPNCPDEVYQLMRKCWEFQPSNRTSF

`CNS(=O)(=O)C[C@H]1CC[C@H](N(C)c2ncnc3[nH]ccc23)CC1` [Example 1a, N-methyl-1-{trans-4-[methyl(7H-pyrrolo[2,3-d]pyrimidin-4-yl)amino]cyclohexyl}methanesulfonamide]: the IC50 in experiment [1] is 9.53 nM; in experiment [2], 95.1 nM; in experiment [3] (whole blood from beagles), 66.3 nM; in experiment [3] (whole blood from mixed breed dogs) it was 138 nM; in experiment [4] it was 122 nM; in [5], > 1000 nM. In addition, the IC50 turned out to be 357 nM in experiment [6] (LPS + ConA); 38 nM in experiment [6] (SAC + IL-2); 147 nM in [7] (LPS + ConA); 100 nM in experiment [7] (SAC + IL-2); 687 nM in experiment [8]; 64 nM in [9]. Also, in experiment [10], the 50% inhibitory concentration (IC50) worked out at 17.5 nM.
Consider `CNS(=O)(=O)C[C@H]1CC[C@H](N(C)c2ncnc3[nH]ccc23)CC1.O=C(O)/C=C\C(=O)O` [Example 1b, N-methyl-1-{trans-4-[methyl(7H-pyrrolo[2,3-d]pyrimidin-4-yl)amino]cyclohexyl}methanesulfonamide maleic acid salt], for which the “pruritus as compared to placebo (seconds of pruritus per 4 hour recording)” value is given as “Significant reductions” in [11] (0.25 mg/kg orally twice a day, days 1, 4 and 12); “Significant reductions” in experiment [11] (0.5 mg/kg orally twice a day, days 1 and 20). Also, the “Lesions and erythema (VAS scores)” value in experiment [11] (0.5 mg/kg orally twice a day for 28 days, flea allergic dogs, Day 27 VAS) is on record as “significantly reduced”.
On to `CN(c1ncnc2[nH]ccc12)[C@H]1CC[C@H](CS(=O)(=O)NC2CCC2)CC1` [Example 2, N-cyclobutyl-1-{trans-4-[methyl(7H-pyrrolo[2,3-d]pyrimidin-4-yl)amino]cyclohexyl}methanesulfonamide], for which the IC50 in experiment [1] came to 45 nM; in experiment [2], 742 nM; in experiment [3] (whole blood from beagles), 410 nM; in experiment [10] it was 101 nM.
Take `CCNS(=O)(=O)C[C@H]1CC[C@H](N(C)c2ncnc3[nH]ccc23)CC1` [Example 3, N-ethyl-1-{trans-4-[methyl(7H-pyrrolo[2,3-d]pyrimidin-4-yl)amino]cyclohexyl}methanesulfonamide]: in [3] (whole blood from beagles), the IC50 was 83 nM.
